Values joined by “and” are separate entries in the source; they are usually repeats but may differ in a detail not shown here. Equal entries are not always repeated.
How the values were obtained:
platelets = conditions: U.S. Pat. Nos. 6,555,543 and 7,732,403; cited from earlier work
endothelial cells = conditions: provisional application No. 61/380,404; cited from earlier work
[1] = Plasma lipids after a single oral dose of DA-DKP in human volunteers; assay type: in vivo; conditions: 100 mg oral; all three subjects
Protocol: (§1) • 1. Two human male volunteers and one human volunteer (respectively) were administered 100 mg of DA-DKP (packed in a gelatin capsule) orally on an empty stomach after overnight fasting. The DA-DKP was composed of L-aspartic acid and L-alanine. • 2. Venous blood samples were drawn into heparinized and EDTA vacutainers at baseline (time zero), 2 hours (hrs), 4 hrs and 24 hrs after the ingestion of the DA-DKP. • 3. Blood samples were analyzed for a complete blood count (CBC) and a biochemical survey, including plasma lipids at baseline and at the 24 hrs time points. Plasma was also used for measurement of the level of DA-DKP by a liquid chromatography mass spectrometer (LCMS) method (protocol and results given below). • 4. Peripheral blood monocytes (PBMC) from heparinized bloods were extracted by Ficoll gradient method and analyzed by flow cytometry. The protocol and results are given below. • 5. Urines were collected for 24 hrs and volumes were recorded. DA-DKP levels were also measured by LCMS. • 6. Saliva at 2 hrs was tested for the presence of DA-DKP by LCMS. Summary of Results: • 1. CBC's were unchanged and remained within the normal range. • 2. […] Urine levels of DA-DKP were calculated (see Table 2). • 6. Saliva DA-DKP levels were calculated (see Table 2) • 7. […]

[2] = Complete blood count and biochemical survey after oral DA-DKP; assay type: in vivo; conditions: 100 mg oral, human
Protocol: as §1

MAPK = conditions: reference 12; cited from earlier work
interleukin-6 (IL-6) = experiment: IL-6 ELISA of preadipocyte culture media; assay type: cell-based; conditions: after the 2 week differentiation period (data not shown)
Protocol: 7-day old medium was aspirated and cells were dosed with DA-DKP (doses used in PGM-2 media: 25, 50, or 100 μM) in triplicate on two plates. The DA-DKP was composed of L-aspartic acid and L-alanine. PGM-2 differentiation media (containing insulin, dexamethasone, indomethacin, and isobutyl-methylxanthine; Lonza) was added to one plate, while PGM-2 media was added to the other. Plates were then placed back in culture and allowed to incubate for 14 days.
After the 14 day incubation period, culture media were collected from all wells and stored at −20° C. for IL-6 ELISA (see below). Wells were rinsed once with 1×PBS (Lonza). 50 μL M-PER lysis solution (Thermo Scientific, Rockford, Ill.) were added to all wells, and complete cell lysis was achieved by mixing each well. 150 μL 1×PBS was added to each well. 5 μL AdipoRed™ Reagent (Lonza) was added to each well, and the plate was mixed immediately by gentle tapping. After 10 minutes, fluorescence was measured on a plate reader set at λEX=485 nm and λEM=572 nm.
Enzyme-linked immunosorbent assay (ELISA) matched-pair antibodies for interleukin-6 (IL-6) were obtained from Thermo Scientific (Rockford, Ill.). IL-6 was analyzed by ELISA and performed according to the manufacturer's instructions. A 1:10 dilution of each supernatant was measured in duplicate using an IL-6 standard (Thermo Scientific, Rockford, Ill.).

[3] = DA-DKP LCMS measurement in plasma, urine and saliva after oral dose; assay type: in vivo, human; conditions: 100 mg oral
Protocol: • 1. Two human male volunteers and one human volunteer (respectively) were administered 100 mg of DA-DKP (packed in a gelatin capsule) orally on an empty stomach after overnight fasting. The DA-DKP was composed of L-aspartic acid and L-alanine. • 2. […] Blood samples were analyzed for a complete blood count (CBC) and a biochemical survey, including plasma lipids at baseline and at the 24 hrs time points. Plasma was also used for measurement of the level of DA-DKP by a liquid chromatography mass spectrometer (LCMS) method (protocol and results given below). • 4. Peripheral blood monocytes (PBMC) from heparinized bloods were extracted by Ficoll gradient method and analyzed by flow cytometry. The protocol and results are given below. • 5. Urines were collected for 24 hrs and volumes were recorded. DA-DKP levels were also measured by LCMS. • 6. Saliva at 2 hrs was tested for the presence of DA-DKP by LCMS. Summary of Results: • 1. CBC's were unchanged and remained within the normal range. • 2. BUN, glucose electrolytes, creatinine, liver function tests, total protein, albumin and calcium were unchanged and within the normal range at 24 hours post ingestion. • 3. […] Urine levels of DA-DKP were calculated (see Table 2). • 6. Saliva DA-DKP levels were calculated (see Table 2) • 7. PBMC results are described below. • 8. Effects noticed by subjects: • a. Significant loss of appetite (lasting 8-9 hrs)—3/3 subjects • b. Slight dry mouth—2/3 subjects • c. Thick saliva—1/3 subjects • d. […] Laxative effect—1/3 subjects • f. Slight drowsiness—1/3 subjects * Analgesic Effect:
Plasma or urines were passed through a <5 Kd filter and 50 μl of the flow-through fractions were injected into high performance liquid chromatography (HPLC, 2975 system, Waters, Mass.) coupled to a mass spectrometer (LCT-TOF, Micromass, UK) and DA-DKP was quantified using a strong anion exchange column (Spherisorb, S5 SAX 250 mm×4.0 mm, Waters) and a ternary mobile phase consisting of water, methanol and 200 mM Ammonium Formate (Sigma Aldrich, Mo.), pH 5.4, at 0.5 ml/min flow rate in a gradient as shown in Table A.
The output of the HPLC was split 1:20 (v:v) and injected into the mass spectrometer using negative electrospray ionization (−ESI MS) with a scan range of 80 to 1000 m/z, cone voltage of 30 eV, source temperature of 100° C., and gas temperature of 300° C. DA-DKP was measured by monitoring the mass 185 in time, which corresponds to DA-DKP minus a single proton (—H+). DA-DKP elutes at 10.4 minutes and was quantified by integrating the area under the curve. The area was compared to a standard curve derived from synthetic DA-DKP standards (DMI Synthesis, Newport Wales, UK) of known concentrations (2000 ng/ml, 1000 ng/ml, 400 ng/ml, 200 ng/ml, 100 ng/ml, 20 ng/ml).

[4] = system: vascular endothelial barrier; conditions: provisional application No. 61/380,404; cited from earlier work
[5] = Effects noticed by subjects after oral DA-DKP (appetite, analgesia, side effects); assay type: in vivo, human; conditions: 100 mg oral
Protocol: • 1. Two human male volunteers and one human volunteer (respectively) were administered 100 mg of DA-DKP (packed in a gelatin capsule) orally on an empty stomach after overnight fasting. The DA-DKP was composed of L-aspartic acid and L-alanine. • 2. Venous blood samples were drawn into heparinized and EDTA vacutainers at baseline (time zero), 2 hours (hrs), 4 hrs and 24 hrs after the ingestion of the DA-DKP. • 3. Blood samples were analyzed for a complete blood count (CBC) and a biochemical survey, including plasma lipids at baseline and at the 24 hrs time points. Plasma was also used for measurement of the level of DA-DKP by a liquid chromatography mass spectrometer (LCMS) method (protocol and results given below). • 4. Peripheral blood monocytes (PBMC) from heparinized bloods were extracted by Ficoll gradient method and analyzed by flow cytometry. The protocol and results are given below. • 5. Urines were collected for 24 hrs and volumes were recorded. DA-DKP levels were also measured by LCMS. • 6. Saliva at 2 hrs was tested for the presence of DA-DKP by LCMS. Summary of Results: • 1. CBC's were unchanged and remained within the normal range. • 2. BUN, glucose electrolytes, creatinine, liver function tests, total protein, albumin and calcium were unchanged and within the normal range at 24 hours post ingestion. • 3. […] Urine levels of DA-DKP were calculated (see Table 2). • 6. Saliva DA-DKP levels were calculated (see Table 2) • 7. PBMC results are described below. • 8. Effects noticed by subjects: • a. Significant loss of appetite (lasting 8-9 hrs)—3/3 subjects • b. Slight dry mouth—2/3 subjects • c. Thick saliva—1/3 subjects • d. […] Laxative effect—1/3 subjects • f. Slight drowsiness—1/3 subjects * Analgesic Effect:
One subject had left knee and left Sacroiliac (SI) joint pain. […] The pain originates probably from inflammation caused by sarcoidosis and was 6-7 on a scale of 1-10 before treatment. The effect lasted for about 4 hrs.

[6] = system: Subcutaneous preadipocytes; experiment: Adipogenesis assay (AdipoRed fluorescence); assay type: cell-based; conditions: 14 days differentiation
Protocol: Subcutaneous preadipocytes (Zen-Bio, Inc., Research Triangle Park, N.C.) were cultured to near confluency at 5% CO2, 37° C. in Preadipocyte Growth Medium-2 (PGM-2, Lonza, Walkersville, Md.) containing 10% fetal bovine serum (FBS), L-glutamine, and GA-1000. Cells were harvested using trypsin/EDTA (Lonza) and initially seeded in 96-well black/clear bottom plates at 3,000 cells/well. Cells were allowed to form a confluent monolayer for 7 days in culture.
7-day old medium was aspirated and cells were dosed with DA-DKP (doses used in PGM-2 media: 25, 50, or 100 μM) in triplicate on two plates. The DA-DKP was composed of L-aspartic acid and L-alanine. […]
After the 14 day incubation period, culture media were collected from all wells and stored at −20° C. for IL-6 ELISA (see below). […] After 10 minutes, fluorescence was measured on a plate reader set at λEX=485 nm and λEM=572 nm.
The triplicate fluorescent values for each treatment were averaged and subtracted from the average media only (i.e. no cells) wells. For the differentiated wells, a % change was calculated by subtracting the average fluorescent value for the differentiated cells from the undifferentiated cells for each treatment group. […] All data are expressed as ±SD. […]

[7] = system: Peripheral blood mononuclear cells (PBMC); experiment: PBMC CD69 expression by flow cytometry after OKT3 stimulation (ex vivo); assay type: cell-based, human; conditions: single individual
Protocol: as §1, with “Plasma was also used for measurement of the level of DA-DKP by a liquid chromatography mass spectrometer (LCMS) method (protocol and results given below). • 4.” left out, “The protocol and results are given below. • 5.” left out, “6.” for “6. Saliva at 2 hrs was tested for the presence of DA-DKP by LCMS. Summary of Results: • 1. CBC's were unchanged and remained within the normal range. • 2.”
Peripheral blood mononuclear cells (PBMC) were isolated from peripheral blood, and 2,000,000 cells were cultured in DMEM medium with 10% human AB serum plus 2% (final concentration) of anti-T-cell receptor complex antibody OKT3. […] After culture overnight at 37° C. cells were washed, incubated with an anti-CD69 antibody, fixed and analyzed on the flow cytometer for CD69 expression. […]

T-cells = conditions: U.S. Pat. Nos. 6,555,543 and 7,732,403; cited from earlier work

In the case of `C[C@@H]1NC(=O)[C@H](CC(=O)O)NC1=O` [DA-DKP], the Aggregation of platelets (platelets) is listed as “inhibit”, the “Cytoskeletal network in endothelial cells” value (endothelial cells) is listed as “stabilize” and the “Lipids at 24 hours post ingestion” value [1] is listed as “decreased across the board”. For the same compound, the “BUN, glucose electrolytes, creatinine, liver function tests, total protein, albumin and calcium” value ([2]; 24 hours post ingestion, within the normal range) was “unchanged”, the CBC ([2]; remained within the normal range) was “unchanged” and the “MAPK activity in T-lymphocytes” value (MAPK) was “inhibitory effect”. The “Effect on IL-6 levels” value (interleukin-6 (IL-6)) was “no significant effect”, the “DA-DKP plasma level at 24 hrs post ingestion” value ([3]; human) was “not detectable” and the “Time of peak DA-DKP plasma level” value ([3]; human) was “about 2 hrs”. For the same compound, the “DA-DKP in plasma, 15 min” value ([3]; 15 min, per human subject) was 0.14 µM, the “DA-DKP in plasma, 30 min” value ([3]; 30 min, per human subject) was 0.35 µM and the “DA-DKP in plasma, 60 min” value ([3]; 60 min, per human subject) was 0.84 µM. The “DA-DKP in plasma, 240 min” value ([3]; 240 min, per human subject) was 0.25 µM and 0.34 µM, the “DA-DKP in plasma, 360 min” value ([3]; 360 min, per human subject) was 0.61 µM and the “DA-DKP in Saliva 2 hrs” value ([3]; saliva at 2 hrs, per human subject) was 0.22 µM and 0.29 µM. The “DA-DKP in Urine 24 hrs” value ([3]; urine collected for 24 hrs, per human subject) was 4.25 µM and 6.98 µM and 3.52 µM, the Vascular hyperpermeability [4] was “inhibit” and the “Duration of loss of appetite” value ([5]; human) was 8 to 9 h. The “Laxative effect, subjects affected” value ([5]; human) was 1/3, the “Significant loss of appetite, subjects affected” value ([5]; human) was 3/3 and the “Slight drowsiness, subjects affected” value ([5]; human) was 1/3. The “Slight dry mouth, subjects affected” value ([5]; human) was 2/3, the “Thick saliva, subjects affected” value ([5]; human) was 1/3 and the “Analgesic effect, subjects affected” value ([5]; human, others did not have pain) was 1/3. The “Duration of analgesic effect” value ([5]; one subject) was “about 4 hrs”, the “Reduction of SI joint pain” value ([5]; one subject) was “about 50%” and the “Time to analgesic effect after ingestion” value ([5]; one subject) was 1 to 2 h. The Left knee pain ([5]; one subject, pain 6-7 on a scale of 1-10 before treatment) was “resolved completely”, the Effect on adipogenesis ([6]; 25 μM) was “significant decrease” and the Effect on adipogenesis ([6]; 100 μM) was “increase”. The “Time of greatest effect on CD69 expression” value ([7]; after DA-DKP ingestion) was 4 h, the “CD69 expression on CD45RA and CD45RO cells” value ([7]; after ingestion of DA-DKP vs time zero, OKT3 stimulation) was “decreased” and the “Activation of T-cells” value (T-cells) was “inhibit”.
